Patent US20250235456A1, “METHODS OF USE FOR AZA-QUINAZOLINE COMPOUNDS” (Iambic Therapeutics, Inc., priority 2024, published 2025)

What was measured:
Format in all cases: biochemical
CDK1/Cyclin B1 = CDK1/Cyclin B1 (Homo sapiens (Human), UniProt P06493); experiment: CDK1/Cyclin B1 ADP-Glo Kinase Assay
Procedure: CDK1/Cyclin B1 ADP-Glo Kinase Assay
(§1) The purpose of CDK1/Cyclin Bi assay is to evaluate the inhibition (% inhibition and IC50 values) of small molecule inhibitors by using a Luminescent based ADP-Glo assay. CDK1/Cyclin B1 catalyzes the production of ADP from ATP. ADP-Glo assay monitors ADP producing biochemical reactions. ADP-Glo is performed in 2 steps upon completion of kinase reaction: a combined termination of kinase reaction and depletion of remaining ATP in the first step, and conversion of generated ADP to ATP and the newly produced ATP to light output using luciferase/luciferin reaction in the second step. The luminescent signal generated is proportional to the ADP concentration produced and is correlated with the kinase activity. CDK1/Cyclin B1 was purchased from Carna (Cat 04-102). […] The assay was initiated with the addition of ATP-containing substrate solution, following a 30-minute pre-incubation of enzyme and inhibitor at room temperature in the reaction mixture. The reaction was stopped after 90 minutes at room temperature by the addition of 10 μL of ADP-GLO Reagent. After a 90 minute incubation, 20 μL of Kinase Detection Reagent was added. Samples were incubated for 40 minutes, after which plate well luminescence was measured on a Envision microplate reader. The IC50 determinations were made from a plot of the fractional velocity as a function of inhibitor concentration fit to the 4 parameters IC50 equation.

CDK6/Cyclin D3 = CDK6/Cyclin D3 (Homo sapiens (Human), UniProt Q00534); experiment: CDK6/Cyclin D3 ADP-Glo Kinase Assay; conditions: read-out: CDK6/CyclinD3 IC50
Procedure: CDK6/Cyclin D3 ADP-Glo Kinase Assay
as §1, with “of the CDK6/Cyclin D3” for “of CDK1/Cyclin Bi”, “values) in the presence” for “values)”, “assay. CDK6/Cyclin D3” for “assay. CDK1/Cyclin B1”, “activity. CDK6/Cychin D3” for “activity. CDK1/Cyclin B1”, “from Carna.” for “from Carna (Cat 04-102).”, “a 90-minute” for “a 90 minute”

CDK4/Cyclin D1 = CDK4/Cyclin D1 (Homo sapiens (Human), UniProt P11802); experiment: CDK4/Cyclin D1 CHEF Assay; conditions: AQT; read-out: CDK4/CyclinD1 AQT IC50
Text: CDK4/Cyclin D1 CHEF Assay
The purpose of CDK4/Cyclin Dl assay is to evaluate the inhibition (% inhibition and IC50 values) of small molecule inhibitors by using a Chelation-Enhance Fluorescence (CHEF) assay. In a CHEF assay, phosphorylation of a peptide substrate results in proportional increase in fluorescence. CHEF kinase assay use peptide substrates containing a synthetic alpha-amino acid with a side chain bearing an 8-hydroxyquinoline derivative (sulfonamido-oxide, Sox). Upon phosphorylation of a nearby serine, threonine or tyrosine and in the presence of Mg(II), the spectral properties of the Sox residue are altered, emitting 485 nm wavelength light when excited with a 360 nm wavelength light source. CDK4/Cyclin D1 catalyzes the phosphoryl transfer to the SOX-labeled substrate peptide AQT0258 from Assayquant Technologies. […] The reaction was initiated with the addition of substrate solution, following a 30-minute pre-incubation of enzyme and inhibitor at 22° C. in the reaction mix. Reactions were allowed to proceed for 3 hrs at 22° C., followed by fluorescence read of the reaction. The IC50 determinations were made from a plot of the fractional velocity as a function of inhibitor concentration fit to the 4 parameters IC50 equation.

Chain of CDK4/Cyclin D1 (P11802 whole entry, species assumed): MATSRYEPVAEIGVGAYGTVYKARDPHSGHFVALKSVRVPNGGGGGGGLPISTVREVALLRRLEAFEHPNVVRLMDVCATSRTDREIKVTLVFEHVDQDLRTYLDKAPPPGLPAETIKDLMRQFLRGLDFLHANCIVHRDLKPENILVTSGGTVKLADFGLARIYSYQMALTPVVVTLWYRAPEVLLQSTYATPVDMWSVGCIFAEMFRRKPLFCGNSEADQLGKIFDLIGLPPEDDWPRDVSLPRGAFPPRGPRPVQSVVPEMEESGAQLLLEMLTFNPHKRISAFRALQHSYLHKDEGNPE
Chain of CDK4/Cyclin D1 (P24385 whole entry partner, species assumed): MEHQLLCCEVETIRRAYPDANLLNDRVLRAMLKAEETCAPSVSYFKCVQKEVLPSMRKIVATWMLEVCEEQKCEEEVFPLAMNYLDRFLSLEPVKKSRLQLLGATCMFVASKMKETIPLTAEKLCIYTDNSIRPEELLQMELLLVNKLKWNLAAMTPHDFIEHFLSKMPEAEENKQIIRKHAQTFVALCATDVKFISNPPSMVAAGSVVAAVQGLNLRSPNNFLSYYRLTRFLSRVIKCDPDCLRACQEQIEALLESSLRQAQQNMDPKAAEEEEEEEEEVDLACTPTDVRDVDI
Chain of CDK1/Cyclin B1 (P06493 whole entry): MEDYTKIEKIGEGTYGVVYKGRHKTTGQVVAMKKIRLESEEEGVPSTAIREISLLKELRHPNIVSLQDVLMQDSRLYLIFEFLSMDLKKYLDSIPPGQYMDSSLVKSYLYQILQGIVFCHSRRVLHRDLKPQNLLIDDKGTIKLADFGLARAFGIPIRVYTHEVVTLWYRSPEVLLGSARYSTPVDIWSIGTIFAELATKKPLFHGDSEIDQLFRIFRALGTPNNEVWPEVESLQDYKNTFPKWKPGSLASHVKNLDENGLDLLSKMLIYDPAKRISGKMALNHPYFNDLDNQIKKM
Chain of CDK1/Cyclin B1 (P14635 whole entry partner): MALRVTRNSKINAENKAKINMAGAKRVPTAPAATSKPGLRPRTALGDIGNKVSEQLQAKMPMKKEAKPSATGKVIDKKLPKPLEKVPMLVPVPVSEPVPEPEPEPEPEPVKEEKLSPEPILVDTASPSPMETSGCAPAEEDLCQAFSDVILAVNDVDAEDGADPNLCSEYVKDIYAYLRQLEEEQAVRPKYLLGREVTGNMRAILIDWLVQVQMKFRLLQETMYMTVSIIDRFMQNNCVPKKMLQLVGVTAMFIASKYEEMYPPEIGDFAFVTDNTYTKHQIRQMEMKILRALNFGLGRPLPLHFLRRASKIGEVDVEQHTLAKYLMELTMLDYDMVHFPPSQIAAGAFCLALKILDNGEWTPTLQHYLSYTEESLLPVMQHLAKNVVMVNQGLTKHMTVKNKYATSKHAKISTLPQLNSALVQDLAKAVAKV
Chain of CDK6/Cyclin D3 (Q00534 whole entry): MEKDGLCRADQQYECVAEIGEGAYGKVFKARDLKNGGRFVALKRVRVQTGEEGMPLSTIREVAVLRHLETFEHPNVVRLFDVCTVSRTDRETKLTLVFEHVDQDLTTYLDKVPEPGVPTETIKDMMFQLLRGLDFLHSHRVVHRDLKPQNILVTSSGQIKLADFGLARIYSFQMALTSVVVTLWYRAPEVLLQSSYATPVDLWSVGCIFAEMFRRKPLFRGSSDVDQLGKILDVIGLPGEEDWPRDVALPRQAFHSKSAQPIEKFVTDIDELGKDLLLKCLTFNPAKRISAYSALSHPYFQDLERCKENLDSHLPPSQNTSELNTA
Chain of CDK6/Cyclin D3 (P30281 whole entry partner): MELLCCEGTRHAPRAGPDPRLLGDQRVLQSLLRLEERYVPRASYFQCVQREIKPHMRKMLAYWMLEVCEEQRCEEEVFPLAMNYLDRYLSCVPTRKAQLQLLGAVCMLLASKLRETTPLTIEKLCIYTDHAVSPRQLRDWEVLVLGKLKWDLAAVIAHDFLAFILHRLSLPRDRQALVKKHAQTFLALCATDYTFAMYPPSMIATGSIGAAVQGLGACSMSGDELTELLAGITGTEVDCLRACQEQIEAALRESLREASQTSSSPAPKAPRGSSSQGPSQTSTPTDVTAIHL

IC50 (CDK1/Cyclin B1) [nM] | IC50 (CDK6/Cyclin D3) [nM] | IC50 (CDK4/Cyclin D1) [nM] | Compound
> 2000 | > 2000 | – | Cc1cc2cnc(Nc3cnn(CC4(N(C)C)CC4)c3)nc2c(N2CCC(C#N)(C3CC3)C2)n1 (centres unmarked) [Compound 38, 3-cyclopropyl-1-(2-((1-((1-(dimethylamino)cyclopropyl)methyl)-1H-pyrazol-4-yl)amino)-6-methylpyrido[3,4-d]pyrimidin-8-yl)pyrrolidine-3-carbonitrile]
< 200 | – | – | [2H]C([2H])([2H])N1CC2(CN(c3nc(C)cc4cnc(NC5CCN(S(C)(=O)=O)CC5)nc34)CC2(F)F)C1 [Example 12, 8-(8,8-difluoro-2-(methyl-d3)-2,6-diazaspiro[3.4]octan-6-yl)-6-methyl-N-(1-(methylsulfonyl)piperidin-4-yl)pyrido[3,4-d]pyrimidin-2-amine]
– | < 200 | < 200 | Cc1cc2cnc(Nc3ccc4c(c3)CN(C3CC3)C4)nc2c(N2CC3(CCNC3)C2)n1 [Compound 47]
– | 200 to 500 | < 200 | Cc1cc2cnc(NC3CCN(S(=O)(=O)C4CC4)CC3)nc2c(N2CC3(CCN(C)C3)C2)n1 [Compound 49, N-(1-(cyclopropylsulfonyl)piperidin-4-yl)-6-methyl-8-(6-methyl-2,6-diazaspiro[3.4]octan-2-yl)pyrido[3,4-d]pyrimidin-2-amine]
– | 200 to 500 | < 200 | Cc1cc2cnc(NC3CCN(S(=O)(=O)CC4CCCC4)CC3)nc2c(N2CC3(CCNC3)C2)n1 [Compound 51, N-(1-((cyclopentylmethyl)sulfonyl)piperidin-4-yl)-6-methyl-8-(2,6-diazaspiro[3.4]octan-2-yl)pyrido[3,4-d]pyrimidin-2-amine]
< 200 | – | – | Cc1cc2cnc(NC3CCN(S(C)(=O)=O)CC3)nc2c(N2CCC3(C2)CC3(F)F)n1 (centres unmarked) [Compound 41, 8-(1,1-difluoro-5-azaspiro[2.4]heptan-5-yl)-6-methyl-N-(1-(methylsulfonyl)piperidin-4-yl)pyrido[3,4-d]pyrimidin-2-amine]
– | < 200 | < 200 | Cc1cc2cnc(NC3CCN(S(C)(=O)=O)CC3)nc2c(C2CC(C)(CO)C2)n1 (centres unmarked) [Compound 69, (1-methyl-3-(6-methyl-2-((1-(methylsulfonyl)piperidin-4-yl)amino)pyrido[3,4-d]pyrimidin-8-yl)cyclobutyl) methanol]
< 200 | – | – | CS(=O)(=O)N1CCC(Nc2ncc3cc(C4CC4)nc(C4CC5(CNCCO5)C4)c3n2)CC1 (centres unmarked) [Compound 70, 6-cyclopropyl-N-(1-(methylsulfonyl)piperidin-4-yl)-8-(5-oxa-8-azaspiro[3.5]nonan-2-yl)pyrido[3,4-d]pyrimidin-2-amine]
– | < 200 | < 200 | Cc1cc2cnc(Nc3ccc(N4CC5(CN(C)C5)C4)cc3)nc2c(N2CCC3(C2)CC3(F)F)n1 (centres unmarked) [Compound 34, 8-(1,1-difluoro-5-azaspiro[2.4]heptan-5-yl)-6-methyl-N-(4-(6-methyl-2,6-diazaspiro[3.3]heptan-2-yl)phenyl)pyrido [3,4-d]pyrimidin-2-amine]
> 2000 | – | – | Cc1cc2cnc(Nc3cnn(C4CN(CC#N)C4)c3)nc2c(N2CC3(CN(C)C3)C2)n1 [Compound 31, 2-(3-(4-((6-methyl-8-(6-methyl-2,6-diazaspiro[3.3]heptan-2-yl)pyrido[3,4-d]pyrimidin-2-yl)amino)-1H-pyrazol-1-yl)azetidin-1-yl)acetonitrile]
– | 200 to 500 | 200 to 500 | Cc1cc2cnc(NC3CCN(S(=O)(=O)C4CC4)CC3)nc2c(N2CC(N3CC(F)C3)C2)n1 [Compound 72, N-(1-(cyclopropylsulfonyl)piperidin-4-yl)-8-(3-fluoro-[1,3′-biazetidin]-1′-yl)-6-methylpyrido[3,4-d]pyrimidin-2-amine]
– | < 200 | < 200 | CN1Cc2ccc(Nc3ncc4ccnc(N5CC6(C5)CS(=O)(=O)C6)c4n3)cc2C1 [Compound 24, 6-(2-((2-methylisoindolin-5-yl)amino)pyrido [3,4-d]pyrimidin-8-yl)-2-thia-6-azaspiro[3.3] heptane2,2-dioxide]
– | 200 to 500 | < 200 | Cc1cc2cnc(NC3CCN(S(C)(=O)=O)CC3)nc2c(N2CC3(CC(O)C3)C2)n1 [Compound 73, 2-(6-methyl-2-((1-(methylsulfonyl)piperidin-4-yl)amino)pyrido[3,4-d]pyrimidin-8-yl)-2-azaspiro[3.3]heptan-6-ol]
< 200 | – | – | Cc1cc2cnc(NC3CCN(S(C)(=O)=O)CC3)nc2c(C2CC3(CNCC3(F)F)C2)n1 (centres unmarked) [Compound 99, 8-(8,8-difluoro-6-azaspiro[3.4]octan-2-yl)-6-methyl-N-(1-(methylsulfonyl)piperidin-4-yl)pyrido[3,4-d]pyrimidin-2-amine]
> 2000 | > 2000 | – | CN1C[C@@H]2[C@H](C1)[C@H]2Nc1ncc2ccnc(N3CCC4(CCN(S(C)(=O)=O)C4)C3)c2n1 (stereo partly drawn) [Compound 15, N-((1R,5S,6s)-3-methyl-3-azabicyclo[3.1.0]hexan-6-yl)-8-(7-(methylsulfonyl)-2,7-diazaspiro[4.4]nonan-2-yl) pyrido[3,4-d]pyrimidin-2-amine]
– | < 200 | < 200 | Cc1cc2cnc(Nc3ccc(N4CC5(CN(C)C5)C4)cc3)nc2c(N2CCC(C#N)(C3CC3)C2)n1 (centres unmarked) [Compound 28, 3-cyclopropyl-1-(6-methyl-2-((4-(6-methyl-2,6-diazaspiro[3.3]heptan-2-yl)phenyl)amino)pyrido[3,4-d]pyrimidin-8-yl)pyrrolidine-3-carbonitrile]
– | < 200 | < 200 | CN1Cc2ccc(Nc3ncc4ccnc(N5CCC6(CCN(S(C)(=O)=O)C6)C5)c4n3)cc2C1 (centres unmarked) [Compound 23, N-(2-methylisoindolin-5-yl)-8-(7-(methylsulfonyl)-2,7-diazaspiro[4.4]nonan-2-yl) pyrido[3,4-d]pyrimidin-2-amine]
< 200 | – | – | [2H]C([2H])([2H])N1CC2(CN(c3nc(C)cc4cnc(NC5CCN(S(=O)(=O)C6CC6)CC5)nc34)CC2(F)F)C1 [Compound 13, N-(1-(cyclopropylsulfonyl)piperidin-4-yl)-8-(8,8-difluoro-2-(methyl-d3)-2,6-diazaspiro[3.4]octan-6-yl)-6-methylpyrido[3,4-d]pyrimidin-2-amine]
– | 200 to 500 | < 200 | COCCN1CC2(C1)CN(c1nc(C3CC3)cc3cnc(NC4CCN(S(=O)(=O)CC5CCC5)CC4)nc13)C2 [Compound 64, N-(1-((cyclobutylmethyl)sulfonyl)piperidin-4-yl)-6-cyclopropyl-8-(6-(2-methoxyethyl)-2,6-diazaspiro[3.3]heptan-2-yl)pyrido [3,4-d]pyrimidin-2-amine]
> 2000 | > 2000 | – | CS(=O)(=O)N1CCC(Nc2ncc3ccnc(N4CC5(CCCC5)c5c(F)cccc54)c3n2)CC1 [Compound 19, 8-(4′-fluorospiro [cyclopentane-1,3′-indolin]-1′-yl)-N-(1-(methylsulfonyl)piperidin-4-yl)pyrido[3,4-d]pyrimidin-2-amine]

Compound | IC50 (CDK1/Cyclin B1) [nM] | IC50 (CDK6/Cyclin D3) [nM] | IC50 (CDK4/Cyclin D1) [nM]
[2H]C([2H])([2H])N1CC2(CN(c3nc(C)cc4cnc(NC5CCN(S(=O)(=O)c6cnn(C)c6)CC5)nc34)CC2(F)F)C1 [Example 11, 8-(8,8-difluoro-2-(methyl-d3)-2,6-diazaspiro[3.4]octan-6-yl)-6-methyl-N-(1-((1-methyl-1H-pyrazol-4-yl)sulfonyl)piperidin-4-yl)pyrido[3,4-d]pyrimidin-2-amine] | < 200 | – | –
